According to publication PMC6844378, “Structure activity relationship studies on Amb639752: toward the identification of a common pharmacophoric structure for DGKα inhibitors” (Journal of Enzyme Inhibition and Medicinal Chemistry, 2019):

Experiments:
DGKθ = molecular target: T1, DGKθ (Homo sapiens, UniProt P52824); experiment: Isoform specificity, DGKθ homogenates of transfected 293T cells; type: biochemical; settings: 100 µM; 293T homogenates
T1 construct: expressed in transfected cells; host or cells: 293T cells, transient transfection (Lipofectamine 3000), crude homogenate
T1 sequence (P52824 1-942): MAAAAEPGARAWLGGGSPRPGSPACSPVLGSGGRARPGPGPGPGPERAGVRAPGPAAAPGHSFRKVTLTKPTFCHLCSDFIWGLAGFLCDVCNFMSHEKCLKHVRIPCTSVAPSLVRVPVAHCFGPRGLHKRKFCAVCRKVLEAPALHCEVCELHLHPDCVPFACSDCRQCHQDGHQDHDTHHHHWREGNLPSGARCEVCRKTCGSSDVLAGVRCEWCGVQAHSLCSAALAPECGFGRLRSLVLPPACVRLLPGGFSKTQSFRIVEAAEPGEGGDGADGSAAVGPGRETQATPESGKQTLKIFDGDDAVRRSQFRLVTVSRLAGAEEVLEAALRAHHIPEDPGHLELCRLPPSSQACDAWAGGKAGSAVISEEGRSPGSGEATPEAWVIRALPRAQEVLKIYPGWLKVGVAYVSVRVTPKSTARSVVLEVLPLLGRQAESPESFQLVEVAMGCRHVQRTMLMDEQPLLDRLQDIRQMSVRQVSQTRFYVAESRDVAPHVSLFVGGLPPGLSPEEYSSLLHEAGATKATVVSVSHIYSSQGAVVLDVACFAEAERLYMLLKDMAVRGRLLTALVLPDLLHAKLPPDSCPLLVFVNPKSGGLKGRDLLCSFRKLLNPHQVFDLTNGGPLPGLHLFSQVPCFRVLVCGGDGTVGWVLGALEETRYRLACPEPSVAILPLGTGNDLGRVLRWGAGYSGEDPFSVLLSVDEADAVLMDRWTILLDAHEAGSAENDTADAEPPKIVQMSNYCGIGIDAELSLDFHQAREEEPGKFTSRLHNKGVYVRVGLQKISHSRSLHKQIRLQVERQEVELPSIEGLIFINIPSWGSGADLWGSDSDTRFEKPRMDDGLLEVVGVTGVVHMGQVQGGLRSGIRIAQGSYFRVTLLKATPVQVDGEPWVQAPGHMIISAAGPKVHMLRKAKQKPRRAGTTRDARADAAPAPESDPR
Procedure: (§1) 293T cells were transiently transfected with indicated DGK isoform plasmid DNA using Lipofectamine 3000, Invitrogen (Carlsbad, CA). Forty eight hours after transfection, cells were harvested and homogenised with a 29 G-needle using 500 µL of homogenate buffer for each dish and immediately stored in aliquots at –80 °C. Cells transfected with empty vector were used as controls, overexpressed DGK has an activity >50 folds the endogenous.
(§2) Essentionally, the same procedure was followed as reported previously in Velnati et al.[9] In brief, DGK activity was assayed by measuring initial velocities (5 min at 27 °C) in presence of saturating substrate concentrations. Reaction conditions: 0.9 µg/µL 1,2-dioleoyl-sn-glycerol, 5 mM ATP, 0.01 µCi/µL [γ^32P]-ATP, 1 mM sodium orthovanadate, 10 mM MgCl2, 1.2 mM EGTA in 7.5 mM Hepes pH 8[12]. Reaction mixture is assembled mixing enzyme (24.5 µL of homogenate), 100× inhibitor or DMSO (0.5 µL), 5× ATP solution (10 µL of 25 mM ATP, 0.05 µCi/µL [γ^32P]-ATP (Perkin-Elmer, Milan, Italy), 5 mM sodium orthovanadate, 50 mM MgCl2), and 3.3× DAG solution (15 µL of 3 µg/µL 1,2-dioleoyl-sn-glycerol resuspended by sonication in 4 mM EGTA in 25 mM Hepes pH 8). […] TLC was run 10 cm and dried before radioactive signals were detected by GS-250 molecular imager and was quantified by quantity one (Bio-Rad, Hercules, CA) software assuring the absence of saturated spots. […]

MCF7 cells = experiment: Migration assay (serum induced wound healing); type: cell-based; settings: 10 µM, 15 h, in presence of serum, vs vehicle (DMSO)
Procedure: Michigan Cancer Foundation 7 (MCF7) cells were cultured in DMEM with 10% FBS + 1% penicillin/streptomycin and cultures were maintained by splitting them for every 2–3 days using trypsin–EDTA 0.25%.
Cell migration assays were performed using the Culture-Insert 2 well in µ-Dish (ibidi GmbH, Martinsried, Germany).
Briefly, 25,000 MCF7 cells were plated in each well and cultured for 24 h. The day after, the culture insert was removed and the cells were washed with PBS before treating them with respective DGKα inhibitors (10 µM) or DMSO for 15 h in complete medium (DMEM 10% FBS + 1% penicillin/streptomycin), while medium without FBS was used as a negative control for migration.
Phase-contrast pictures were taken immediately after treatment (0 h) and after 15 h under 5× magnification.
Finally, wound areas were determined using ImageJ software (NIH, , Bethesda, MD). Wound reduction was calculated by using the following formula: (wound area at 15 h/wound at 0 h)×100, the values obtained were expressed as the percentage of wound area compared to the initial area.
To evaluate if our newly synthetised DGKα inhibitors were effective in impairing cancer cell migration, we measured serum induced wound healing in MCF7 breast cancer cells in presence of 10 µM inhibitor. […]
Figure 10. […] Results are expressed as the percentage of wound area compared to the initial area. […]

DGKα = DGKα (Homo sapiens, UniProt P23743); experiment: Isoform specificity, DGKα homogenates of transfected 293T cells; type: biochemical; settings: 100 µM; 293T homogenates
Sequence of DGKα (P23743 whole entry, canonical isoform): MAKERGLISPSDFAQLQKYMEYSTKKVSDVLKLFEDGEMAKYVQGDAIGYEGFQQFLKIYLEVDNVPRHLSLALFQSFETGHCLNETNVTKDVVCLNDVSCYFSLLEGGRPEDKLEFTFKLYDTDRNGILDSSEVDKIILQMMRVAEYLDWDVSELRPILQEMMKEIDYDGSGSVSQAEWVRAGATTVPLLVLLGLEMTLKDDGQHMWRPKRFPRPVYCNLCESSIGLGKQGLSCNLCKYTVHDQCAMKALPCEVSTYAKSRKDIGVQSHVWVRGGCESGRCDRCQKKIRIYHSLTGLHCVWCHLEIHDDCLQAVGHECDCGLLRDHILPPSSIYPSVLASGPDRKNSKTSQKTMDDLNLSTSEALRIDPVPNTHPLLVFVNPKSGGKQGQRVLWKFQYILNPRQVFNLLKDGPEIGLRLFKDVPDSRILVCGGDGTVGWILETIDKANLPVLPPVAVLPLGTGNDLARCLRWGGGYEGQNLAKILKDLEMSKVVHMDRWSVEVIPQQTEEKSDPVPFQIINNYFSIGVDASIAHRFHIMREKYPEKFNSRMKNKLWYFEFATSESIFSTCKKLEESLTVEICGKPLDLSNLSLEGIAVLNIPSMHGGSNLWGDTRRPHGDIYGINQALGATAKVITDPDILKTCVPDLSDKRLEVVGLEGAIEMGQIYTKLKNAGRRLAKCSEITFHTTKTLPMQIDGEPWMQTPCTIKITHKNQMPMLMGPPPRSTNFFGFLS
Procedure: as §1, §2

Compound | effect on DGKθ activity (DGKθ) | cell migration (wound closure) (MCF7 cells) | inhibition of DGKα activity (DGKα)
Cc1ccc(C(=O)N2CCN(CC(=O)c3c(C)[nH]c4cc(C)ccc34)CC2)cc1 [Compound 20, 1-(2,6-Dimethyl-1H-indol-3-yl)-2-(4-(4-methylbenzoyl)piperazin-1-yl)ethan-1-one] | activator | reduce the migration | –
Cc1ccc2c(C(=O)CN3CCN(C(=O)c4ccc(Cl)cc4)CC3)c(C)[nH]c2c1 [Compound 11, 2-(4-(4-Chlorobenzoyl)piperazin-1-yl)-1-(2,6-dimethyl-1H-indol-3-yl)ethan-1-one] | – | reduce the migration | –
Cc1ccc2c(C(=O)CN3CCN(C(=O)c4ccco4)CC3)c(C)[nH]c2c1 [Amb639752] | do not have significant effects | – | completely inhibit
